In article PMC12427763 (2025):
Each block holds one molecule with its values, some of them ahead of it.

Columns and labels:
[1] = tested on: 5'-biotin c-myb IM (DNA, i motif) TCCTCCTCCTCCTTCTCCTCCTCCTCCGTGACCTCCTCCTCC; assay: SPR; settings: K+ 100 mM; 20 mM MES pH 5.5, 5% DMSO
[2] = tested on: 5'-biotin c-myb G4 (DNA, G4) GGAGGAGGAGGTCACGGAGGAGGAGGAGAAGGAGGAGGAGGA; assay: SPR; settings: K+ 100 mM; 50 mM Tris-HCl pH 7.4, 5% DMSO
[3] = tested on: c-myb IM (5'-FAM) (DNA, i motif) TCCTCCTCCTCCTTCTCCTCCTCCTCCGTGACCTCCTCCTCC; assay: MST; settings: K+ 100 mM, 20 mM MES pH 5.5
[4] = tested on: c-myb G4 (5'-FAM) (DNA, G4) GGAGGAGGAGGTCACGGAGGAGGAGGAGAAGGAGGAGGAGGA; assay: MST; settings: K+ 100 mM; 50 mM Tris-HCl pH 7.4
[5] = tested on: c-Jun IM (DNA, i motif) TAACCCCCTCCCCCTCCCCCCTTTAAT; assay: SPR; settings: K+ 100 mM; 20 mM MES pH 5.5, 5% DMSO
[6] = tested on: c-Jun G4 (DNA, G4) AAGGGGGGAGGGGGAGGGGGTT; assay: SPR; settings: K+ 100 mM; 50 mM Tris-HCl pH 7.4, 5% DMSO
[7] = tested on: Rb IM (DNA, i motif) GCCGCCCAAAACCCCCCG; assay: SPR; settings: K+ 100 mM; 20 mM MES pH 5.5, 5% DMSO
[8] = tested on: Bcl-2 IM (DNA, i motif) CAGCCCCGCTCCCGCCCCCTTCCTCCCGCGCCCGCCCCT; assay: SPR; settings: K+ 100 mM; 20 mM MES pH 5.5, 5% DMSO
[9] = tested on: Bcl-2 G4 (DNA, G4) GGGCGGGCGCGGGAGGAAGGGGGCGGG; assay: SPR; settings: K+ 100 mM; 50 mM Tris-HCl pH 7.4, 5% DMSO
[10] = tested on: Ret IM (DNA, i motif) CCCCGCCCCGCCCCGCCCCTA; assay: SPR; settings: K+ 100 mM; 20 mM MES pH 5.5, 5% DMSO
[11] = tested on: Kras G4 (DNA, G4) AGGGCGGTGTGGGAAGAGGGAAGAGGGGGAGG; assay: SPR; settings: K+ 100 mM; 50 mM Tris-HCl pH 7.4, 5% DMSO
[12] = tested on: Hras G4 (DNA, G4) TTGAGGGTGGGTAGGGTGGGTAAA; assay: SPR; settings: K+ 100 mM; 50 mM Tris-HCl pH 7.4, 5% DMSO
[13] = tested on: HIF-1α IM (5'-FAM) (DNA, i motif) GCCCGAGCGCGCCTCCGCCCTTGCCCGCCCCCTG; assay: MST; settings: K+ 100 mM; 20 mM MES pH 5.5
[14] = tested on: Kras IM (5'-FAM) (DNA, i motif) CCTCCCCCTCTTCCCTCTTCCCACACCGCCCT; assay: MST; settings: K+ 100 mM; 20 mM MES pH 5.5
[15] = tested on: c-Jun IM (5'-FAM) (DNA, i motif) TAACCCCCTCCCCCTCCCCCCTTTAAT; assay: MST; settings: K+ 100 mM; 20 mM MES pH 5.5
[16] = tested on: c-Jun G4 (5'-FAM) (DNA, G4) AAGGGGGGAGGGGGAGGGGGTT; assay: MST; settings: K+ 100 mM; 50 mM Tris-HCl pH 7.4
[17] = tested on: Ret IM (5'-FAM) (DNA, i motif) CCCCGCCCCGCCCCGCCCCTA; assay: MST; settings: K+ 100 mM; 20 mM MES pH 5.5
[18] = tested on: Rb IM (5'-FAM) (DNA, i motif) GCCGCCCAAAACCCCCCG; assay: MST; settings: K+ 100 mM; 20 mM MES pH 5.5
[19] = tested on: Kras G4 (5'-FAM) (DNA, G4) AGGGCGGTGTGGGAAGAGGGAAGAGGGGGAGG; assay: MST; settings: K+ 100 mM; 50 mM Tris-HCl pH 7.4
[20] = tested on: c-myb IM (DNA, i motif) TCCTCCTCCTCCTTCTCCTCCTCCTCCGTGACCTCCTCCTCC; assay: TO displacement, fluorescence; settings: K+ 100 mM plus potassium phosphate; BPES pH 5.5, 1 mM EDTA; tracer thiazole orange 2 μM
[21] = tested on: c-myb G4 (DNA, G4) GGAGGAGGAGGTCACGGAGGAGGAGGAGAAGGAGGAGGAGGA; assay: TO displacement, fluorescence; settings: K+ 100 mM; 50 mM Tris-HCl pH 7.4; tracer thiazole orange 2 μM

KD [1]: 0.58 µM | KD [2]: 1.10 µM | KD [3]: 1.04 ± 0.40 µM | KD [4]: 1.43 ± 0.64 µM | KD [5]: 18.70 µM | KD [6]: 32.90 µM | KD [7]: 7.70 µM | KD [8]: 18.50 µM | KD [9]: 23.60 µM | KD [10]: 7.71 µM | KD [11]: 27.50 µM | KD [12]: 29.10 µM | KD [13]: 14.19 µM | KD [14]: 20.59 µM | KD [15]: 34.42 µM | KD [16]: > 50 µM | KD [17]: 18.00 µM | KD [18]: 20.93 µM | KD [19]: 19.90 µM | DC50 [20]: 0.8 µM | DC50 [21]: 1.0 µM
SMILES: O=C1c2cccc3cc(-c4ccc5c(c4)c4cc(-c6cn(CCN7CCCC7)nn6)ccc4n5CCN4CCCC4)cc(c23)C(=O)N1CCN1CCCC1

KD [1]: 12.90 µM | KD [2]: 3.03 µM | KD ([3]; supplement prints 10.39 ± 2.67): 10.06 ± 2.67 µM | KD [4]: 1.11 ± 0.52 µM
SMILES: O=C1c2cccc3cc(-c4ccc5c(c4)c4ccccc4n5CCN4CCCC4)cc(c23)C(=O)N1CCN1CCCC1

KD [1]: 3.34 µM | KD [2]: 5.15 µM | KD [3]: 2.11 ± 0.71 µM | KD [4]: 8.53 ± 3.22 µM
SMILES: O=C1c2cccc3c(-n4cc(-c5ccc6c(c5)c5ccccc5n6CCN5CCCC5)nn4)ccc(c23)C(=O)N1CCN1CCCC1
